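Tested at 5 concentrations; 48 h exposure; 96-well plates; endpoints linearly interpolated, else capped at highest concentration. The concentration for 50% growth inhibition is given as GI50.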 Calls of active or inactive are those of the source. Cut-off read from the data, not from the text of the source: active = GI50 up to about 1.1 µM and inactive = higher.
How the values were obtained:
Assay in all cases: growth of human tumour cells (NCI), 48 h
[1] = test system: SN12C
[2] = test system: Malme-3M
[3] = test system: EKVX
[4] = test system: COLO 205
[5] = test system: SF-539
[6] = test system: OVCAR-3
[7] = test system: RPMI-8226
[8] = test system: OVCAR-4
[9] = test system: HT-29
[10] = test system: U-251
[11] = test system: UACC-62
[12] = test system: CAKI-1
[13] = test system: HCT-116
[14] = test system: SF-295
[15] = test system: A498
[16] = test system: NCI-H460
[17] = test system: LOX IMVI
[18] = test system: MOLT-4

Measured: GI50

CC(=O)NC(CCCNC(=O)OCc1ccccc1)C(=O)NCc1ccccc1 (stereo unspecified)
inactive: [1] > 100 µM | [2] > 100 µM | [3] > 100 µM | [4] > 100 µM | [5] > 100 µM | [6] > 100 µM | [7] > 100 µM | [8] > 100 µM | [9] > 100 µM | [10] > 100 µM | [11] > 100 µM | [12] > 100 µM | [13] > 100 µM | [14] > 100 µM | [15] > 100 µM | [16] > 100 µM | [17] > 100 µM | [18] > 100 µM

C=C1CC2C(=O)N(c3ccccc3)C(=O)C2CC1n1[nH]c(=O)n(Cc2ccccc2)c1=O (stereo unspecified)
inactive: [1] > 100 µM | [2] > 100 µM | [3] > 100 µM | [4] > 100 µM | [5] > 100 µM | [6] > 100 µM | [7] > 100 µM | [8] > 100 µM | [9] > 100 µM | [10] > 100 µM | [11] > 100 µM | [12] > 100 µM | [13] > 100 µM | [14] > 100 µM | [15] > 100 µM | [16] > 100 µM | [17] > 100 µM | [18] > 100 µM

S=c1c2ccccc2c(=S)n2n1CC=CC2
inactive: [1] > 100 µM | [2] > 100 µM | [3] > 100 µM | [4] > 100 µM | [5] > 100 µM | [6] > 100 µM | [7] > 100 µM | [8] > 100 µM | [9] > 100 µM | [10] > 100 µM | [11] > 100 µM | [12] > 100 µM | [13] > 100 µM | [14] > 100 µM | [15] 76.2 µM | [17] > 100 µM | [18] > 100 µM

Cc1cc(=O)oc2c1cc(OCC(=O)OCCN1CCCCC1)c1occ(C)c12
inactive: [1] > 100 µM | [2] > 100 µM | [3] > 100 µM | [5] > 100 µM | [6] > 100 µM | [7] > 100 µM | [8] > 100 µM | [9] > 100 µM | [10] > 100 µM | [11] > 100 µM | [12] > 100 µM | [13] > 100 µM | [14] > 100 µM | [15] > 100 µM | [16] > 100 µM | [17] > 100 µM | [18] > 100 µM

CC1(C)OC(C[C@]2(C#N)C[C@H](CCl)OC(C)(C)O2)C[C@@H](C[C@]2(C#N)C[C@H](CCl)OC(C)(C)O2)O1 (stereo partly specified)
inactive: [1] > 100 µM | [2] > 100 µM | [3] > 100 µM | [4] > 100 µM | [5] > 100 µM | [6] > 100 µM | [7] > 100 µM | [8] > 100 µM | [9] > 100 µM | [10] > 100 µM | [11] > 100 µM | [12] > 100 µM | [13] 60.4 µM | [14] > 100 µM | [15] > 100 µM | [16] > 100 µM | [17] > 100 µM | [18] 38.8 µM

CC(=O)OC[C@@H](COC(=O)/C=C/c1ccc(O)cc1)OC1OC(CO)C(O)C(O)C1O (stereo partly specified)
inactive: [1] > 100 µM | [2] > 100 µM | [3] > 100 µM | [4] > 100 µM | [5] > 100 µM | [6] > 100 µM | [7] > 100 µM | [8] > 100 µM | [9] > 100 µM | [10] > 100 µM | [11] > 100 µM | [12] > 100 µM | [13] > 100 µM | [14] > 100 µM | [15] > 100 µM | [16] > 100 µM | [17] > 100 µM | [18] > 100 µM
